“Also recorded” adds a separate entry of the source. Where a SMILES comes first, the peptide text is derived from it.
Assays:
[1] = Fate of radiolabeled (3H/14C) peptide after injection into the animal; type: in vivo; details: no matter the route of administration
Excerpt: Lytic peptides are active in eliminating tumor-derived cells by causing direct osmotic lysis. […] Indeed, that is the case. […] However, in some cases there was little activity. To determine what might be happening in vivo, radiolabeled D2A21 was chemically synthesized with all alanines labeled with either ^3H or ^14C. Since the labeling pattern was asymmetric, it enabled us to follow the physical state of the peptide once it had been injected into the animal by comparing the unique ratios of ^3H/^14C that would result if the peptide experienced proteolysis. […] The possibility emerged that the systemic in vivo anti-cancer activity was retained within specific fragments of D2A21.

[2] = tested on: Stage IV pancreatic cancer; details: cited from earlier work
[3] = tested on: angiogenesis in Matrigel deposits imbibed with fibroblast growth factor 1 (FGF1); assay: Matrigel deposit angiogenesis assay (FGF1-loaded Matrigel implanted in mice, histology score); type: in vivo; design: key to top level score reached in Matrigel deposits: ++++: This system ranks each sample using a 0 to 4 plus (+) scale; B in FIG. 13 would yield a score of +++; no + sign would yield a value of 0, as in A in FIG. 13; details: for angiogenic activity score, Sample 1 / angiogenic activity score, Sample 2 / angiogenic activity score, Sample 3 / angiogenic activity score, Sample 4 / angiogenic activity score, Sample 5 / angiogenic activity score, Sample 6 / angiogenic activity score, Sample 7 / angiogenic activity score, Sample 8 / top level score reached in Matrigel deposits: 0 to 4 plus scale; for angiogenic activity score, Sample 1 / angiogenic activity score, Sample 2 / angiogenic activity score, Sample 3 / angiogenic activity score, Sample 4 / angiogenic activity score, Sample 5 / angiogenic activity score, Sample 6 / angiogenic activity score, Sample 7 / angiogenic activity score, Sample 8 / angiogenic / anti-angiogenic activity in Matrigel deposit (in words): 20 μg peptide IP daily; for angiogenic activity score, Sample 1 / angiogenic activity score, Sample 2 / angiogenic activity score, Sample 3 / angiogenic activity score, Sample 4 / angiogenic activity score, Sample 5 / angiogenic activity score, Sample 6 / angiogenic activity score, Sample 7 / angiogenic activity score, Sample 8: Day 14 histology; for % Diff.: difference of mean score from control (2.50); for angiogenic / anti-angiogenic activity in Matrigel deposit (in words): histology, Day 14; for angiogenic activity score, Mean: mean of samples, control mean 2.50
Excerpt: Matrigel deposits were surgically implanted on both sides of 4 mice per treatment yielding a possible 8 samples per treatment. Matrigel is a polymeric substance that appears to be relatively inert in animals and it can serve as a matrix that allows experimentation in vivo on many different difficult-to-study-processes. Prior to implantation, the Matrigel was allowed to imbibe fibroblast growth factor 1 (FGF1). This protein is a powerful inducer of angiogenesis and its presence guarantees that sufficient activity will be observed within the allotted time period of the experiment. Therefore, any inhibition of angiogenesis is likely to be a real phenomenon as the experiment has been set to heavily favor the angiogenic process. Angiogenesis occurs by day 14 and beginning Day 1 (Day 0=day of implantation), mice were injected IP daily with 20 μg of peptide in 100 μl of normal saline. The animals were sacrificed on Day 14, and each Matrigel deposit divided longitudinally and fixed in 10% buffered formalin. One of the halves of each Matrigel deposit was then sectioned. Read-out for this experiment was via histology, with semi-quantitative/qualitative counting of migration of cells and their subsequent assembly of lumenal structures within the Matrigel. This method allows us to observe the full physiologic spectrum of effects, and was useful in delineating trends. […] In FIG. 13, A represents what a section of a Matrigel gel deposit looks like under the microscope soon after surgical implantation. The sample in B is derived from the control at the conclusion of the experiment. Intense activity is present with numerous cells attaching to the surface of the Matrigel. Cells begin to penetrate the deposit and organize into discrete structures that coalesce to form the beginning of tubes twisting and branching in many directions. These venules eventually connect with the system carrying blood and it is possible to see red cells and lymphocytes within them. This process is called “arborization”, derived from the fact that the angiogenic process most closely resembles the growth of roots and branches of trees. All but two of the peptide treatments looked, more or less, like B (all the peptides of Table 1 were tested). In C, a typical sample from the peptide C-1 treatment is shown. […] Consequently, there were far fewer cells and cellular structures inside of the Matrigel. […] There were large regions of Matrigel that had no visibly associated structures and few single cells, including on the periphery, while other regions had some limited activity.
This system ranks each sample using a 0 to 4 plus (+) scale. Thus, B in FIG. 13 would yield a score of +++ while no + sign would yield a value of 0, as in A in FIG. 13. In Table 3 the data is modified to a numerical form and plotted averages are shown.

HMEC-1 monolayer = assay: Endothelial cell migration assay (scraped HMEC-1 monolayer); type: cell-based; details: NT = 1.00
Procedure: The results in Table 6 are gathered from an in vitro experiment and show the ability of JC 15 10N to inhibit the migration of endothelial cells (the “minus” values). This migration is a requisite step in the formation of new blood vessels. […] The shading indicates the presence of VEGF ([…] endothelial growth factor). This growth factor causes endothelial cell migration and consequent assembly of blood vessels.
Cell migration was performed as previously described. In brief, a HMEC-1 monolayer was scraped making a 1-mm wide denuded area then stimulated with VEGF and 10N and the area unoccupied by the migrating cells was determined using MetaMorph and expressed as a percentage of control.

Compound: C[C@H](NC(=O)[C@H](Cc1ccccc1)NC(=O)[C@H](C)NC(=O)[C@H](Cc1ccccc1)NC(=O)[C@H](CCCCN)NC(=O)[C@H](C)NC(=O)[C@H](Cc1ccccc1)NC(=O)[C@H](CCCCN)NC(=O)[C@H](CCCCN)NC(=O)[C@H](C)NC(=O)[C@H](Cc1ccccc1)NC(=O)[C@H](CCCCN)NC(=O)[C@H](CCCCN)NC(=O)[C@H](Cc1ccccc1)NC(=O)[C@H](CCCCN)NC(=O)[C@H](CCCCN)NC(=O)[C@H](C)NC(=O)[C@H](Cc1ccccc1)NC(=O)[C@H](CCCCN)NC(=O)[C@H](CCCCN)NC(=O)[C@H](C)NC(=O)[C@@H](N)Cc1ccccc1)C(=O)N[C@@H](Cc1ccccc1)C(=O)O [JC15] (H-FAKKFAKKFKKFAKKFAKFAFAF-OH; N-terminus and C-terminus assumed)
- time to hydrolysis of labeled peptide to fragments of various lengths [1]: within minutes

Compound: Nc1ccn([C@@H]2O[C@H](CO)[C@@H](O)C2(F)F)c(=O)n1 [gemcitabine]
- longest survival on treatment ([2]; patients with Stage IV pancreatic cancer on gemcitabine treatment): 19 months
- Median survival time ([2]; patients with Stage IV pancreatic cancer treated with gemcitabine (untreated 4.5 months)): 4.8 months

Compound: FAKKFAKFAF [JC15-10C]
- angiogenic activity score, Sample 1 [3]: 2
- angiogenic activity score, Sample 2 [3]: 3
- angiogenic activity score, Sample 3 [3]: 2
- angiogenic activity score, Sample 4 [3]: 3
- angiogenic activity score, Sample 5 [3]: 2
- angiogenic activity score, Sample 6 [3]: 3
- angiogenic activity score, Sample 7 [3]: 2
- angiogenic activity score, Sample 8 [3]: 3
- % Diff. [3]: 0.00%
- angiogenic / anti-angiogenic activity in Matrigel deposit (in words) [3]: inactive
- angiogenic activity score, Mean [3]: 2.50

Compound: FAKKFAKKFKKF [JC15-12N]
- top level score reached in Matrigel deposits [3]: ++++
- angiogenic activity score, Sample 1 [3]: 4
- angiogenic activity score, Sample 2 [3]: 2
- angiogenic activity score, Sample 3 [3]: 3
- angiogenic activity score, Sample 4 [3]: 2
- angiogenic activity score, Sample 5 [3]: 3
- angiogenic activity score, Sample 6 [3]: 2
- angiogenic activity score, Sample 7 [3]: 3
- % Diff. [3]: 8.57%
- angiogenic / anti-angiogenic activity in Matrigel deposit (in words) [3]: levels of activity higher than the control; also recorded: cannot exert an anti-angiogenic effect
- angiogenic activity score, Mean [3]: 2.71

Compound: FAKKFAKKFKKFAKKFAK [JC15-18N]
- angiogenic activity score, Sample 1 [3]: 3
- angiogenic activity score, Sample 2 [3]: 2
- angiogenic activity score, Sample 3 [3]: 3
- angiogenic activity score, Sample 4 [3]: 3
- % Diff. [3]: 10.00%
- angiogenic / anti-angiogenic activity in Matrigel deposit (in words) [3]: levels of activity higher than the control; also recorded: cannot exert an anti-angiogenic effect
- angiogenic activity score, Mean [3]: 2.75

Compound: IVRRADRAAVPIVNLKDELL [C-1]
- angiogenic activity score, Sample 1 [3]: 2
- angiogenic activity score, Sample 2 [3]: 2
- angiogenic activity score, Sample 3 [3]: 3
- angiogenic activity score, Sample 4 [3]: 1
- angiogenic activity score, Sample 5 [3]: 2
- angiogenic activity score, Sample 6 [3]: 1
- % Diff. [3]: −26.67%
- angiogenic / anti-angiogenic activity in Matrigel deposit (in words) [3]: far fewer cellular associations; also recorded: possess anti-angiogenic activity
- angiogenic activity score, Mean [3]: 1.83

Compound: KKFKKFAKKFAKFAF [JC15-15C]
- top level score reached in Matrigel deposits [3]: ++++
- angiogenic activity score, Sample 1 [3]: 2
- angiogenic activity score, Sample 2 [3]: 3
- angiogenic activity score, Sample 3 [3]: 2
- angiogenic activity score, Sample 4 [3]: 3
- angiogenic activity score, Sample 5 [3]: 2
- angiogenic activity score, Sample 6 [3]: 3
- angiogenic activity score, Sample 7 [3]: 3
- angiogenic activity score, Sample 8 [3]: 4
- % Diff. [3]: 10.00%
- angiogenic / anti-angiogenic activity in Matrigel deposit (in words) [3]: levels of activity higher than the control; also recorded: cannot exert an anti-angiogenic effect
- angiogenic activity score, Mean [3]: 2.75

Compound: LDLQAPLYKKIIKKLLES [PF-2]
- angiogenic activity score, Sample 1 [3]: 2
- angiogenic activity score, Sample 2 [3]: 3
- angiogenic activity score, Sample 3 [3]: 2
- angiogenic activity score, Sample 4 [3]: 3
- % Diff. [3]: 0.00%
- angiogenic activity score, Mean [3]: 2.50

Compound: MFGNGKGYRGKRATTVTGTP [PL-2]
- angiogenic activity score, Sample 1 [3]: 2
- angiogenic activity score, Sample 2 [3]: 3
- angiogenic activity score, Sample 3 [3]: 2
- angiogenic activity score, Sample 4 [3]: 3
- angiogenic activity score, Sample 5 [3]: 2
- angiogenic activity score, Sample 6 [3]: 3
- angiogenic activity score, Sample 7 [3]: 2
- % Diff. [3]: −2.86%
- angiogenic activity score, Mean [3]: 2.43

Compound: PTAQLIATLKNGRKI [PF-1]
- angiogenic activity score, Sample 1 [3]: 2
- angiogenic activity score, Sample 2 [3]: 3
- angiogenic activity score, Sample 3 [3]: 2
- angiogenic activity score, Sample 4 [3]: 3
- % Diff. [3]: 0.00%
- angiogenic activity score, Mean [3]: 2.50

Compound: QAWDSQSPHAHGYIPSKFPNKNLKKNY [PL-1]
- angiogenic activity score, Sample 1 [3]: 2
- angiogenic activity score, Sample 2 [3]: 3
- angiogenic activity score, Sample 3 [3]: 2
- angiogenic activity score, Sample 4 [3]: 3
- angiogenic activity score, Sample 5 [3]: 2
- angiogenic activity score, Sample 6 [3]: 3
- angiogenic activity score, Sample 7 [3]: 2
- angiogenic activity score, Sample 8 [3]: 3
- % Diff. [3]: 0.00%
- angiogenic activity score, Mean [3]: 2.50

Compound: vascular endothelial growth factor [VEGF, reference compound]
- Endothelial Cell Migration (HMEC-1 monolayer; VEGF 75 ng/ml, second series): 0.69
- Endothelial Cell Migration (HMEC-1 monolayer; VEGF 150 ng/ml, first series): 0.78
- Endothelial Cell Migration (HMEC-1 monolayer; VEGF 150 ng/ml, third series): 0.77

Reference: US20120270770A1, “Anti-angiogenic peptides and their uses” (priority 2010, published 2012)
